EP0262903A2, “New acyl derivatives of 20-modified tylosin and desmycosin compounds” (priority 1986, dated 1988)
Converted amounts (≈) assume the structure as drawn. Read-outs that look alike come from different tables or passages of the source.

Experiments:
[1] = tested on: Mycoplasma hyorhinis 29E; assay: MIC, conventional broth-dilution microtiter test; format: cell-based
Description: (§1) The MIC's in Table II were determined by standard agar-dilution assays. The MIC's in Table III were obtained using conventional broth-dilution microtiter tests.

[2] = tested on: Pasteurella hemolytica 23C; assay: MIC, conventional broth-dilution microtiter test; format: cell-based
Description: as §1

[3] = tested on: Streptococcus sp. 19F; assay: MIC, conventional broth-dilution microtiter test; format: cell-based
Description: as §1

[4] = tested on: Pasteurella multocida 17E; assay: MIC, conventional broth-dilution microtiter test; format: cell-based; conditions: Bovine isolate
Description: as §1

[5] = tested on: Pasteurella multocida 60A; assay: MIC, conventional broth-dilution microtiter test; format: cell-based; conditions: Avian isolate
Description: as §1

[6] = tested on: Pasteurella multocida 40G; assay: MIC, conventional broth-dilution microtiter test; format: cell-based
Description: as §1

[7] = tested on: Mycoplasma gallisepticum 36H; assay: MIC, conventional broth-dilution microtiter test; format: cell-based; conditions: Mycoplasmoides gallisepticum
Description: as §1

[8] = tested on: Mycoplasma gallisepticum 15E; assay: MIC, conventional broth-dilution microtiter test; format: cell-based; conditions: Mycoplasmoides gallisepticum
Description: as §1

[9] = tested on: Mycoplasma gallisepticum 29C; assay: MIC, conventional broth-dilution microtiter test; format: cell-based; conditions: Mycoplasmoides gallisepticum
Description: as §1

[10] = tested on: Pasteurella multocida 68C; assay: MIC, conventional broth-dilution microtiter test; format: cell-based
Description: as §1

[11] = tested on: Pasteurella multocida 22A; assay: MIC, conventional broth-dilution microtiter test; format: cell-based
Description: as §1

[12] = tested on: Mycoplasma synoviae 40A; assay: MIC, conventional broth-dilution microtiter test; format: cell-based; conditions: Mycoplasmopsis synoviae
Description: as §1

[13] = tested on: Pasteurella hemolytica 41D; assay: MIC, conventional broth-dilution microtiter test; format: cell-based
Description: as §1

[14] = tested on: Mycoplasma hyopneumoniae S5972; assay: MIC, conventional broth-dilution microtiter test; format: cell-based; conditions: Mesomycoplasma hyopneumoniae
Description: as §1

[15] = tested on: Staphylococcus aureus; assay: MIC, conventional broth-dilution microtiter test; format: cell-based
Description: as §1

[16] = tested on: Bordetella bronchiseptica; assay: MIC, conventional broth-dilution microtiter test; format: cell-based
Description: as §1

[17] = tested on: Pasteurella hemolytica 22C; assay: MIC, conventional broth-dilution microtiter test; format: cell-based
Description: as §1

[18] = tested on: Streptococcus pneumoniae Park I; assay: MIC, standard agar-dilution assay; format: cell-based; conditions: Streptococcus pneumoniae Park I; agar dilution; read-out: MIC
Description: as §1

[19] = tested on: Staphylococcus aureus X400; assay: MIC, standard agar-dilution assay; format: cell-based; conditions: Staphylococcus aureus X400; Methicillin-resistant strain; agar dilution; read-out: MIC
Description: as §1

[20] = tested on: Haemophilus influenzae 76; assay: MIC, standard agar-dilution assay; format: cell-based; conditions: Haemophilus influenzae 76; Ampicillin-resistant strain; agar dilution; read-out: MIC
Description: as §1

[21] = tested on: Escherichia coli EC14; assay: MIC, standard agar-dilution assay; format: cell-based; conditions: Escherichia coli EC14; agar dilution; read-out: MIC
Description: as §1

[22] = tested on: Staphylococcus aureus V41; assay: MIC, standard agar-dilution assay; format: cell-based; conditions: Staphylococcus aureus V41; Penicillin-resistant strain; agar dilution; read-out: MIC
Description: as §1

[23] = tested on: Streptococcus faecalis 2041; assay: MIC, standard agar-dilution assay; format: cell-based; conditions: Enterococcus faecalis; Streptococcus faecalis 2041; agar dilution; read-out: MIC
Description: as §1

[24] = tested on: Staphylococcus aureus S13E; assay: MIC, standard agar-dilution assay; format: cell-based
Description: as §1

[25] = tested on: Pseudomonas aeruginosa X239; assay: MIC, standard agar-dilution assay; format: cell-based; conditions: Pseudomonas aeruginosa X239; agar dilution; read-out: MIC
Description: as §1

[26] = tested on: Staphylococcus epidermidis 222; assay: MIC, standard agar-dilution assay; format: cell-based; conditions: Staphylococcus epidermidis 222; agar dilution; read-out: MIC
Description: as §1

[27] = tested on: Klebsiella pneumoniae X68; assay: MIC, standard agar-dilution assay; format: cell-based
Description: as §1

[28] = tested on: Staphylococcus epidermidis EPI1; assay: MIC, standard agar-dilution assay; format: cell-based; conditions: Staphylococcus epidermidis EPI1; agar dilution; read-out: MIC
Description: as §1

[29] = tested on: Streptococcus faecalis X66; assay: MIC, standard agar-dilution assay; format: cell-based; conditions: Enterococcus faecalis; Streptococcus faecalis X66; agar dilution; read-out: MIC
Description: as §1

[30] = tested on: Haemophilus influenzae C.L.; assay: MIC, standard agar-dilution assay; format: cell-based; conditions: Haemophilus influenzae C.L.; Ampicillin-sensitive strain; agar dilution; read-out: MIC
Description: as §1

[31] = tested on: Staphylococcus aureus X1.1; assay: MIC, standard agar-dilution assay; format: cell-based; conditions: Staphylococcus aureus X1.1; agar dilution; read-out: MIC
Description: as §1

[32] = tested on: Streptococcus pyogenes C203; assay: MIC, standard agar-dilution assay; format: cell-based; conditions: Streptococcus pyogenes C203; agar dilution; read-out: MIC
Description: as §1

[33] = tested on: Streptococcus pyogenes C203; assay: ED50 in mice experimentally infected with S. pyogenes C203; format: in vivo; conditions: two doses given 1 and 4 hours post-infection, dose protecting 50% of the test animals
Description: The formula 1 compounds have shown in vivo antimicrobial activity against experimentally-induced infections in laboratory animals. When two doses of test compound were administered to mice experimentally infected with S. pyogenes C203, the activity observed was measured as an ED₅₀ value [effective dose in mg/kg to protect 50% of the test animals: see Warren Wick, et 5 al., J. Bacteriol. 81, 233-235 (1961)].

[34] = C203, mice, oral, read-out: ED50 Oral
[35] = C203, sc, mice, subcutaneous, read-out: ED50 Subcutaneous

Work on `CCC1OC(=O)CC(O)C(C)C(OC2OC(C)C(O)C(N(C)C)C2O)C(CCOc2ccccc2)CC(C)C(=O)C=CC(C)=CC1COC1OC(C)C(OC(C)=O)C(OC)C1OC` (stereo not drawn) [Compound 2, 4ʹʹ-O-Acetyl-20-DH-20-O-phenyl-desmycosin] yielded an MIC [1] of 50 µg/mL (≈ 56 µM), an MIC [2] of 50 µg/mL (≈ 56 µM) and an MIC [3] of 12.5 µg/mL (≈ 14 µM). For the same compound, the MIC [4] was 50 µg/mL (≈ 56 µM), the MIC [5] was > 50 µg/mL and the MIC [6] was 50 µg/mL (≈ 56 µM). It also gave an MIC [7] of 50 µg/mL (≈ 56 µM), an MIC [8] of 50 µg/mL (≈ 56 µM) and an MIC [9] of 0.78 µg/mL (≈ 0.874 µM). For the same compound, the MIC [10] was 25 µg/mL (≈ 28 µM), the MIC [11] was > 50 µg/mL and the MIC [12] was 3.12 µg/mL (≈ 3.5 µM). The MIC [13] was > 50 µg/mL, the MIC [14] was 25 µg/mL (≈ 28 µM) and the MIC [15] was 1.56 µg/mL (≈ 1.75 µM). For the same compound, the MIC [16] was > 50 µg/mL, the MIC [17] was > 50 µg/mL and the MIC [18] was 2 µg/mL (≈ 2.24 µM). The MIC [19] was 2 µg/mL (≈ 2.24 µM), the MIC [20] was 128 µg/mL (≈ 143 µM) and the MIC [21] was > 128 µg/mL. For the same compound, the MIC [22] was 2 µg/mL (≈ 2.24 µM), the MIC [23] was 32 µg/mL (≈ 35.9 µM) and the MIC [24] was 2 µg/mL (≈ 2.24 µM). The MIC [25] was > 128 µg/mL, the MIC [26] was 1 µg/mL (≈ 1.12 µM) and the MIC ([27]; Klebsiella pneumoniae X68, agar dilution, read-out: MIC) was > 128 µg/mL. The MIC [28] was 2 µg/mL (≈ 2.24 µM), the MIC [29] was 16 µg/mL (≈ 17.9 µM) and the MIC [30] was 128 µg/mL (≈ 143 µM). For the same compound, the MIC [31] was 2 µg/mL (≈ 2.24 µM), the MIC [32] was 1 µg/mL (≈ 1.12 µM) and the ED50 [33, 34] was 10.9 mg/kg. It also gave an ED50 [33, 35] of 4.46 mg/kg.
`CCC1OC(=O)CC(O)C(C)C(OC2OC(C)C(O)C(N(C)C)C2O)C(CCOc2ccccc2)CC(C)C(=O)C=CC(C)=CC1COC1OC(C)C(OC(=O)CN2CCCC2)C(OC)C1OC` (stereo not drawn) [Compound 13, 20-DH-20-O-Phenyl-4ʹʹ-O-(pyrrolidin-1-ylacetyl)-desmycosin] was tested, and the MIC [2] was 50 µg/mL (≈ 52 µM), the MIC [3] was 6.25 µg/mL (≈ 6.5 µM) and the MIC [4] was 50 µg/mL (≈ 52 µM). For the same compound, the MIC [5] was 50 µg/mL (≈ 52 µM), the MIC [6] was 25 µg/mL (≈ 26 µM) and the MIC [7] was 50 µg/mL (≈ 52 µM). It also gave an MIC [8] of 50 µg/mL (≈ 52 µM), an MIC [9] of 1.56 µg/mL (≈ 1.62 µM) and an MIC [10] of 25 µg/mL (≈ 26 µM). For the same compound, the MIC [11] was 50 µg/mL (≈ 52 µM), the MIC [13] was > 50 µg/mL and the MIC [14] was > 50 µg/mL. The MIC [15] was 3.12 µg/mL (≈ 3.25 µM), the MIC [16] was > 50 µg/mL and the MIC [17] was > 50 µg/mL. For the same compound, the MIC [18] was 2 µg/mL (≈ 2.08 µM), the MIC [19] was 1 µg/mL (≈ 1.04 µM) and the MIC [20] was 32 µg/mL (≈ 33.3 µM). For the same compound, the MIC [21] was > 128 µg/mL, the MIC [22] was 1 µg/mL (≈ 1.04 µM) and the MIC [23] was 16 µg/mL (≈ 16.6 µM). The MIC [24] was 1 µg/mL (≈ 1.04 µM), the MIC [25] was > 128 µg/mL and the MIC [26] was 0.5 µg/mL (≈ 0.52 µM). For the same compound, the MIC ([27]; Klebsiella pneumoniae, X68) was > 128 µg/mL, the MIC [28] was 1 µg/mL (≈ 1.04 µM) and the MIC [29] was 16 µg/mL (≈ 16.6 µM). It also gave an MIC [30] of 32 µg/mL (≈ 33.3 µM), an MIC [31] of 0.5 µg/mL (≈ 0.52 µM) and an MIC [32] of 1 µg/mL (≈ 1.04 µM). For the same compound, the ED50 [33, 34] was 24 mg/kg and the ED50 [33, 35] was 10 mg/kg.
